# Reference: article doi:10.1101/2024.12.25.630315 (bioRxiv, 2024)
# Tests used:
# Nectin-4 [1] = biological target: T1, Nectin-4 (Homo sapiens, UniProt Q96NY8); assay: In vitro blocking of [^68Ga]AJ647 uptake by non-radioactive AJ647; type: cell-based; settings: pre-incubation with 2 μM non-radioactive AJ647
# T1 construct: host or cells: HT1376, SCaBER, T24, RT112, UC9, UC14 urothelial carcinoma cells; HT1376 xenografts in NSG mice
# T1 sequence (Q96NY8 32-510): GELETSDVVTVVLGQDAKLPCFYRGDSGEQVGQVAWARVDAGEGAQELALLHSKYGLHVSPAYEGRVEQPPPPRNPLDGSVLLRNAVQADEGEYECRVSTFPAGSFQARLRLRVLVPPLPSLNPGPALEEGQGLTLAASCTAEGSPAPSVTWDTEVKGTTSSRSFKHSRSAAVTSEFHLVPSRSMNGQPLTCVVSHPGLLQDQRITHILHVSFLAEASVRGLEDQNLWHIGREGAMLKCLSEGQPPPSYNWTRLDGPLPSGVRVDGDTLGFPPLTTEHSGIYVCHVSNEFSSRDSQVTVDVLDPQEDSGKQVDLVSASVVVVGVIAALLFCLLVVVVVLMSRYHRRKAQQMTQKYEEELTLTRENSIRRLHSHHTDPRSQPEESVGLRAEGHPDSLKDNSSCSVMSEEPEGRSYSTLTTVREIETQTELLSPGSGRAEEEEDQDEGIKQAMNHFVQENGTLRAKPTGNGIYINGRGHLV
# Description: Figure 3. In vitro specificity of [^68Ga]AJ647 for Nectin-4 in bladder cancer cell lines A) [^68Ga]AJ647 binding (percent incubated activity, %IA) to various bladder cancer cell lines. Cells were incubated with ~37 kBq (~1 μCi) [^68Ga]AJ647 at 4°C for 1 hour. […] B) Flow cytometry analysis of Nectin-4 receptor expression across different bladder cancer cell lines, providing insight into the variability in receptor density among the cell lines. […] Data in figure A and C are represented as mean ± SD. Pearson correlation used in C.
# Nectin-4 [2] = biological target: T1, Nectin-4; assay: In vivo blocking of [^68Ga]AJ647 uptake by non-radioactive AJ647, HT1376 xenografts; set-up: species or system mouse; settings: 1 mg/kg non-radioactive AJ647; PET
# Description: Dynamic PET-MR imaging was performed for up to 90 minutes post-injection. […] By 60 minutes, the tumor contrast had further improved due to background radiotracer clearance, as evidenced by the percent injected activity per cubic centimeter (%IA/cc) values derived from [^68Ga]AJ647 PET (Fig. 4B). […] In contrast, minimal uptake was detected in non–Nectin-4-expressing tissues such as muscle.
# Mice with tumor volume of ~100–150 mm^3 were injected with ~[…] (7.4 MBq) of [^68Ga]AJ647 in […] of 5% ethanol in saline intravenously and anesthetized under 2.5% isoflurane. PET-CT images were acquired at 60 minutes after radiotracer injection at 5 min/bed in an ARGUS small-animal PET/CT scanner (Sedecal, Madrid, Spain) as described (n=3 unless otherwise noted). PET-MR images were acquired on a simultaneous 7T Bruker PET-MR scanner. Dynamic imaging was conducted to evaluate pharmacokinetics of [^68Ga]AJ647. […] The SUV values were calculated by finding percent of injected activity (%IA) based on a calibration factor obtained from a known radioactive quantity, then normalizing by mice weight. […] For change in accessible Nectin-4 levels following EV treatment, ΔSUV was calculated by subtracting baseline (pre-treatment) uptake from post-therapy uptake of [^68Ga]AJ647. Target engagement was quantified by normalizing this change by initial SUV in same subject controls. […]
structure (smiles),measurement,setting,value
CSCC[C@@H]1NC(=O)[C@@H]2CSCCC(=O)N3CN(CN(C3)C(=O)CCSC[C@H](NC(=O)CCOCCOCCOCCOCCOCCOCCOCCOCCOCCOCCOCCOCCNC(=O)CN3CCN(CC(=O)O)CCN(CC(=O)O)CC3)C(=O)N3CCC[C@H]3C(=O)N[C@@H](Cc3cccc4ccccc34)C(=O)N[C@@H](CC(=O)O)C(=O)N2)C(=O)CCSC[C@@H](C(N)=O)NC(=O)[C@H](Cc2c[nH]c3ccccc23)NC(=O)[C@@H]2C[C@@H](O)CN2C(=O)[C@@H]2CCCN2C(=O)[C@H]([C@@H](C)O)NC(=O)[C@H](CO)NC(=O)[C@H](Cc2c[nH]c3ccccc23)NC(=O)[C@@H](CC(=O)O)NC(=O)[C@H](CCCCNC(=N)N)NC1=O [AJ647],effect of blocking dose on [^68Ga]AJ647 uptake in bladder cancer cell lines,Nectin-4 [1],significantly reduced radiotracer uptake
same,effect on [^68Ga]AJ647 tracer uptake in HT1376 xenografts,Nectin-4 [2],reduction in tracer uptake
